Measurements: article PMC8422652, “Neuromedin U induces an invasive phenotype in CRC cells expressing the NMUR2 receptor” (Journal of Experimental & Clinical Cancer Research : CR, 2021)
Read-outs that look alike come from different tables or passages of the source. Square brackets hold non-standard residues; d marks the D form. Ends that are not written are not given here. Peptide text beside a SMILES is read from it. Dmt = Cc1cc(O)cc(C)c1C[C@H](N)C(=O)O; Tic = O=C(O)[C@@H]1Cc2ccccc2CN1

How the values were obtained:
[1] = Half-life in human plasma (plasma stability); format: in vitro ADME
From the text: NMURs agonists, which are NMU-8 analogues, were synthesized with a HPLC purity > 98 %, as described in literature. […] All peptides were used as solutions in water. Peptide sequences and stability data are available in the Table S1 (Additional File 1).

HT29 cells = assay: Ca2+ mobilization assay (fluo-4) in HT29 cells; format: cell-based, human
Experimental: (§1) Cells grown on poly-lysine-coated 48-well plates (Corning) for 24 h were stained for 15 min at 37 °C with Hoechst 33342 (Invitrogen). PBS rinsed cells were loaded with Fluo-4 AM (5 µM; Invitrogen) for 45–60 min at 37 °C in the presence of 0.5 % of pluronic-127 in the incubation medium (growth medium without FBS and PS, supplemented with 0.1 % BSA). Cells were rinsed with warm PBS and bathed in a final volume of 300 µl of incubation medium. Images were acquired using AxioVert fluorescence inverted microscope (Zeiss, Germany) with the use of 10 x dry objective (NA 0.3). First, an image of Hoechst 33342-stained nuclei was acquired. Next, a time-lapse image sequence in green channel (Fluo-4) was recorded with exposure time of 500 ms in the same field of view. […] For analysis of CRC cells we chose minimal concertation that induce significant fluorescence change. NMU-9 (1 µM) and NMUR2 agonist (200 nM ~ 5 times the EC50 determined in literature). […] Quantification of the effects is described in Additional Files 1 and 3. […]
(§2) Quantification of the calcium mobilisation were performed with the use of FIJI image processing package***. […] Fluorescence intensity change over time was measured in each ROI in corresponding movie sequence of Fluo-4 stained cells. […] Such background-corrected values of fluorescence intensity were used for further calculations. […]

[2] = test system: HEK293 R2_HA cell line overexpressing NMUR2; assay: Ca2+ mobilization assay (fluo-4) in HEK293 R2_HA cells; format: cell-based, human
Experimental: as §1, §2

ERK1/2 in Caco-2 cells = assay: ERK1/2 activation analysis (immunoblot) in Caco-2 cells; format: cell-based, human; details: SBL-NMU-17 250 nM, immunoblot pERK1/2 normalised to ERK1/2 and α-tubulin, n = 5 (NMU-9 n = 1)
Experimental: (§3) CRC cells were lysed with RIPA buffer (100 mM TRIS-HCl, pH 7.5, 300 mM NaCl, 0.2 % SDS with 1 % IGEPAL CA-630 and the Halt™ Protease Inhibitor Cocktail (Thermo Fisher Scientific)) with subsequent centrifugation (18,000 x g, 4 °C, 20 min). Total protein concentration in lysate was quantified by BCA method (Pierce BCA Protein Assay; Thermo Fisher Scientific). Samples were loaded and separated by SDS-PAGE (Mini-PROTEAN TGX Stain-Free Gels; Bio-Rad Laboratories, CA, USA) and transferred onto nitrocellulose membranes (Bio-Rad Laboratories). NMU protein was detected with rabbit anti-NMU antibody (Genetex, CA, USA), for ERK1/2 kinases analysis mouse anti-ERK1/2 (Santa Cruz Biotechnology, USA) and rabbit anti-pERK1/2 antibodies (Invitrogen) were used. In EVs (extracellular vesicles) purity analysis we used rabbit antibodies anti-GM130, anti-annexin V and anti-flotilin-1 (Cell Signaling Technologies, Danvers, MA, USA). Proteins used as loading controls were detected by mouse anti-β-actin, mouse anti-α-tubulin or rabbit anti-GAPDH antibody (Abcam, Cambridge, GB). We used secondary HRP-conjugated goat anti-mouse (Santa Cruz Biotechnology) or anti-rabbit antibodies (Invitrogen). The signal was detected by chemiluminescence (Thermo Fisher Scientific) with Kodak BioMax Light Film from Eastman Kodak (NY, USA). […]

[3] = test system: ERK1/2 in HEK293 R2_HA cells; assay: ERK1/2 activation analysis (immunoblot) in HEK293 R2_HA cells; format: cell-based, human; details: HEK293 R2_HA clone, n = 1
Experimental: as §3, with “In EVs (extracellular vesicles) purity analysis we used rabbit antibodies anti-GM130, anti-annexin V and anti-flotilin-1 (Cell Signaling Technologies, Danvers, MA, USA).” left out, “We used secondary HRP-conjugated goat anti-mouse (Santa Cruz Biotechnology) or anti-rabbit antibodies (Invitrogen).” left out
Fig. S1 HEK293 R2_HA clones with exogenous NMUR2 overexpression. (A) NMUR2 mRNA levels were analysed in HT29 with endogenous expression of NMUR2 and compared to those in HEK293 R2_HA clones with exogenous expression of NMUR2 (**p ≤ 0,01; n ≥ 3). […] The changes in fluorescence were detected and analysed as described in the Methods section. […]

NMUR2 = NMUR2 agonist, cited from earlier work
From the text: (§4) NMURs agonists, which are NMU-8 analogues, were synthesized with a HPLC purity > 98 %, as described in literature.

[4] = test system: NMUR1 and NMUR2 expression in CRC cells; assay: 5-aza-CdR treatment for NMUR1 and NMUR2 expression analysis (real-time PCR); format: cell-based, human; details: 50 µM for 96 h (4 days), n ≥ 4
Experimental: Total RNA was isolated with the ReliaPrep™ RNA Cell Miniprep System (Promega, Madison, WI, USA). The quality control of isolated RNA was performed using the 2100 Bioanalyser (Agilent Technologies, Palo Alto, CA, USA) according to the manufacturer’s instructions. 1 µg of the isolated total RNA (RIN ≥ 8) was reverse transcribed using the High Capacity cDNA Reverse Transcription Kit (Applied Biosystems, CA, USA) according to the manufacturer’s instructions. Real time PCR for human NMU, NMUR1, NMUR2, NTSR1, GHSR1b, GAPDH and β-actin was performed using FastStart Essential DNA Probes Master or FastStart Essential DNA Green Master (Roche, Basel, Switzerland). Amplification was performed on a Roche LightCycler 96. GADPH and/or β-actin mRNA transcripts were used as internal control genes. The amount of target in the various samples was calculated using the 2^−ΔCt relative quantification method with DataAssist v.3.01.
Cells were seeded on 6-well plates (Corning, NY, USA). After cells attachment (6 h), DNA methyltransferase inhibitor, 5-aza-2’-deoxycytidine (5-aza-CdR) (Sigma-Aldrich) was added at final concentration of 50 µM. Medium containing 5-aza-CdR was refreshed every 24 h. After 96 h, total RNA was isolated and analysed. The real-time PCR products were analysed on a 2 % agarose gel with ethidium bromide (Sigma-Aldrich) and visualized.

HCT116 cells = assay: Ca2+ mobilization assay (fluo-4) in HCT116 cells; format: cell-based, human; details: 1 µM NMU-9, 40 nM NMUR1 agonist, percentage of cells above threshold, n = 5
Experimental: as §1, with “change.” for “change. NMU-9 (1 µM) and NMUR2 agonist (200 nM ~ 5 times the EC50 determined in literature).”
Quantification of the calcium mobilisation were performed with the use of FIJI image processing package***. […] Fluorescence intensity change over time was measured in each ROI in corresponding movie sequence of Fluo-4 stained cells. To acquire the change of background fluorescence over time in each movie sequence, additional ROIs were created by the analyst manually in the sites devoid of cells. […]

[5] = cited from earlier work
From the text: Supplement 13046_2021_2073_MOESM1_ESM.docx, table 1: Table S1. […] NMURs agonists, which are NMU-8 analogues, were synthesized with a HPLC purity > 98 %, as described in literature.

NMUR1 = NMUR1 agonist, cited from earlier work
From the text: as §4

[6] = species not given; cited from earlier work
From the text: Physiologically, NMU has been predominantly found in the central nervous system and in the periphery. In the gastrointestinal tract, locally administered NMU leads to smooth muscle contraction, regulating intestinal motility and regional blood flow, but epithelial cells are not the source of the peptide in the gastrointestinal tract under normal conditions. Human neuromedin U synthesis is tightly regulated at the genetic, epigenetic, transcriptional and post-transcriptional levels, regulating access to cellular microenvironments. Peptide precursors can be produced from three ...

Molecule: CC(C)C[C@H](NC(=O)[C@H](Cc1ccccc1)NC(=O)[C@@H](N)Cc1ccc(O)cc1)C(=O)N[C@@H](Cc1ccccc1)C(=O)N[C@@H](CCCNC(=N)N)C(=O)N1Cc2ccccc2C[C@H]1C(=O)N[C@@H](CCCNC(=N)N)C(=O)N[C@@H](CC(N)=O)C(N)=O [SBL-NMU-17] (H-YFLFR[Tic]RN-NH2)
- Metabolite observed in plasma stability studies ([1]; human plasma, both peptides yielded a 7-amino acid long metabolite): only Tyr was lost
- Minimal concentration that induces significant fluorescence change (Ca2+ mobilisation) (HT29 cells; CRC cells, tested 150, 200, 300 nM): 200 nM
- Change in fluo-4 fluorescence intensity caused by Ca2+ mobilisation (HT29 cells; HT29 cells, 1 µM NMU-9, 200 nM NMUR2 agonist, percentage of cells above threshold, n = 5): significantly responded
- Minimal effective concentration (Ca2+ influx) ([2]; HEK293 R2_HA cells loaded with fluo-4): 150 nM
- Calcium mobilisation (fluo-4) ([2]; HEK293 R2_HA, NMU-9 0.7 µM, SBL-NMU-17 150 nM, n = 3): significant calcium mobilisation
- Phosphorylation (activation) of ERK1/2 kinases (ERK1/2 in Caco-2 cells): induced ERK1/2 kinase activation
- ERK1/2 phosphorylation [3]: observed ERK1/2 phosphorylation
- EC50 (NMUR2; IP3 pathway activation data): 45.5 nM
- IC50 (NMUR2; competitive binding assay): 13 nM

Molecule: Nc1ncn([C@H]2C[C@H](O)[C@@H](CO)O2)c(=O)n1 [5-aza-CdR, 5-aza-2’-deoxycytidine]
- NMUR1 and NMUR2 expression after DNA demethylation [4]: regulated by promoter methylation

Molecule: CC(=O)N[C@@H](Cc1ccc(O)cc1)C(=O)N[C@@H](Cc1ccccc1)C(=O)N[C@@H](CC(C)C)C(=O)N[C@@H](Cc1c(C)cc(O)cc1C)C(=O)N[C@@H](CCCNC(=N)N)C(=O)N1CCC[C@H]1C(=O)N[C@@H](CCCNC(=N)N)C(=O)N[C@@H](CC(N)=O)C(N)=O [SBL-NMU-21] (Ac-YFL[Dmt]RPRN-NH2)
- Change in fluo-4 fluorescence intensity caused by Ca2+ mobilisation (HCT116 cells): did not detect statistically significant changes
- Half-life in human plasma (t1/2) [5]: 4.225 h
- EC50 (NMUR1; calculated based on the IP3 pathway activation data): 7.7 nM
- IC50 (NMUR1; calculated based on the competitive binding assay): 0.36 nM

Molecule: NMU: Native neuromedin U peptide, secretory neuropeptide with amidated C-terminal pentapeptide (FRVDEEFQSPFASQSRGYFLFRPRN-NH2; UniProt P48645 142-166, looked up)
- estimated half-life in plasma [6]: less than 5 min

Molecule: GYFLFRPRN-NH2 [NMU-9]
- Metabolite observed in plasma stability studies [1]: the peptide devoid of the Gly-Tyr segment was quickly observed
- Half-life in human plasma (t1/2) ([1]; human): 4.60 ± 0.4 min
